# Earlier results in patent US7928112B2, “Substituted 5,6,7,8-tetrahydropyrido[4,3-D]pyrimidines as dipeptidyl peptidase-IV inhibitors for the treatment or prevention of diabetes” (Merck Sharp & Dohme Corp., priority 2006, dated 2011).
# Key:
# DPP-4 [1] = target: T1, DPP-4 (Rattus norvegicus, UniProt P14740); settings: rats; survival doubled from day 7 to day 14
# T1 construct: host or cells: rats (in vivo)
# DPP-4 [2] = target: T2, DPP-4 (Mus musculus, UniProt P28843); settings: cyclophosphamide-induced neutropenia
# T2 construct: host or cells: mouse (in vivo)
# T2 sequence (P28843 whole entry): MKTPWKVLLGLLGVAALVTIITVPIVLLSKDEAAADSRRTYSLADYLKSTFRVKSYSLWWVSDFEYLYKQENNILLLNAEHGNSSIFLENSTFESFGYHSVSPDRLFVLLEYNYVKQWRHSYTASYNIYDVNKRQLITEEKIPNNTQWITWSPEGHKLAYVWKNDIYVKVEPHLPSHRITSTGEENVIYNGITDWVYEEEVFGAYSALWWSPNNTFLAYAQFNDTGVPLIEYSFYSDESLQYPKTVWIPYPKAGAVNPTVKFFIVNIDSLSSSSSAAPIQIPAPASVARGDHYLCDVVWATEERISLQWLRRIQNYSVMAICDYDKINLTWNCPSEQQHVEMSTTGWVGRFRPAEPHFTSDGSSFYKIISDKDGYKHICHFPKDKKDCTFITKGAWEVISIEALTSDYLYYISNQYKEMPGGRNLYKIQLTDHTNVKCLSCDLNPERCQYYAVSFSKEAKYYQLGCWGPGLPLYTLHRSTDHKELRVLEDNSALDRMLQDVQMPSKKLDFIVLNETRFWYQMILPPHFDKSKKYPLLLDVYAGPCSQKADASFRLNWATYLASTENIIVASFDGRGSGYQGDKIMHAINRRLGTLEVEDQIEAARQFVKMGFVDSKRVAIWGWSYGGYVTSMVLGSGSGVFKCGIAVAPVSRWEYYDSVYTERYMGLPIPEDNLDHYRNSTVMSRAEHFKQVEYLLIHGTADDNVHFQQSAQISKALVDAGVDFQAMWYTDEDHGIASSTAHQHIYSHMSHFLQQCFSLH
# DPP-4 [3] = target: T3, DPP-4 (Homo sapiens, UniProt P27487)
# T3 construct: GRF is rapidly degraded in plasma to GRF[3-44]; from tissue; host or cells: plasma
# T3 sequence (P27487 39-766 limits assumed, species assumed): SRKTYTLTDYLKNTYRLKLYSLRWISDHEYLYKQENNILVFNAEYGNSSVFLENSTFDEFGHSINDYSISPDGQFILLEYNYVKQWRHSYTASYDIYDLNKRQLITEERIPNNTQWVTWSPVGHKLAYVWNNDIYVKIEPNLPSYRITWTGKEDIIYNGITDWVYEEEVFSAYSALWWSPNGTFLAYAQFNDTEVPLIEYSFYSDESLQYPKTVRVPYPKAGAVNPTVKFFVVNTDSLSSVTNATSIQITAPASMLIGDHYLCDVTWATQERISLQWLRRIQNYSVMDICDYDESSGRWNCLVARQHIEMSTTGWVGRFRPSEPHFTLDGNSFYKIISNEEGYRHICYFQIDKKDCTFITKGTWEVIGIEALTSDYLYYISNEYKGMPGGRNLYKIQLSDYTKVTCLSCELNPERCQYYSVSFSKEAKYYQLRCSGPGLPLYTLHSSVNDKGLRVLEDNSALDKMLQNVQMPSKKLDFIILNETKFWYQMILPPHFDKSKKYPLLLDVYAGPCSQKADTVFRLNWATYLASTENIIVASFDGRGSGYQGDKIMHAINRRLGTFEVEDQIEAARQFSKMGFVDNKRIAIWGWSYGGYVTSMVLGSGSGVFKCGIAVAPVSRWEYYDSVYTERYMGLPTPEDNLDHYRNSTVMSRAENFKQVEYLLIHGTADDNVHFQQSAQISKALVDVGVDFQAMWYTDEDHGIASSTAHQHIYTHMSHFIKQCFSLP
# T1 sequence (P14740 whole entry): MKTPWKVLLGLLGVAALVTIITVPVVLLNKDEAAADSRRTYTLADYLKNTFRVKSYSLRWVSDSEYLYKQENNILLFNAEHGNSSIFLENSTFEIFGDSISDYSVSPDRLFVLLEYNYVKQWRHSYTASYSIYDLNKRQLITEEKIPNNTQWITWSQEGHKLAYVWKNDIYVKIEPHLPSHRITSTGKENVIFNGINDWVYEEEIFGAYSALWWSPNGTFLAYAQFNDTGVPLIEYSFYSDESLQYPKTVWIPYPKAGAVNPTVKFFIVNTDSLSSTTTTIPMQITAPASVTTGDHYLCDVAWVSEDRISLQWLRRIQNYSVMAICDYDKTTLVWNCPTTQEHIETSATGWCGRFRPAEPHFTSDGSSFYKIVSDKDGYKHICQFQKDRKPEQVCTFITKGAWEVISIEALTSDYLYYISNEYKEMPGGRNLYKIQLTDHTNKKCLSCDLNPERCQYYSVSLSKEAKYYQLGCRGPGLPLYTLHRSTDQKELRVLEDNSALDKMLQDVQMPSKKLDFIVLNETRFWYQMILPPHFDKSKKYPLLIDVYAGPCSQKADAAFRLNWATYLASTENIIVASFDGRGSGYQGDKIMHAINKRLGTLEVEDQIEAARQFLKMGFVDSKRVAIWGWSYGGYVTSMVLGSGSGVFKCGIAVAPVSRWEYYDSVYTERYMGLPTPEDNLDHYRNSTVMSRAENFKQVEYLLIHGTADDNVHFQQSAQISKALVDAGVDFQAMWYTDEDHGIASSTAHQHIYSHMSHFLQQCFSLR
smiles,measurement,setting,value
"CC(C)N1CCC(c2ccccc2)(c2ccccc2)CC1 [Prodipine, Pro-Pro-diphenyl-phosphonate]",cardiac allograft survival,DPP-4 [1],14 day
CC(C)[C@H](N)C(=O)N1CCC[C@H]1B(O)O [Val-Boro-Pro],hematopoiesis,DPP-4 [2],stimulated hematopoiesis
CC[C@H](C)[C@H](N)C(=O)N1CCC[C@H]1C(=O)N[C@H](C(=O)O)[C@@H](C)CC [diprotin A],degradation of GRF to GRF[3-44] in plasma,DPP-4 [3],prevented
